Laboratory results published in US3956338A, “4,6-Dibromo-5-hydroxy-2-pyridine nitrile compounds and method of preparation” (The Dow Chemical Company, priority 1975, dated 1976).

Experiments:
plants = test: Comparison with BROMINIL as post-emergent herbicide, overall; assay type: in vivo; details: Example 2(C)
Description: (§1) All plants were grown in a greenhouse and sprayed with the test solution when they attained 1 to 2 inches in height. The test solutions were made up in water, using a 0.2% Tween 20 surfactant (polyoxyethylene derivative of a fatty acid partial ester of sorbitol) and were applied in a total spray volume equivalent to 300 gallons per acre.

weeds = test: Post- and pre-emergent herbicide evaluation, weeds overall; assay type: in vivo; details: Examples 2(A) and 2(B)
Description: (§2) Pots are filled with a sandy soil, and plants of any species considered appropriate (such as pigweed, field bindweed, velvet leaf, cotton, barnyard grass, foxtail, wild oat, and crabgrass) are grown to an average height of 2 to 4 inches. Plants are then sprayed to run-off with an aqueous solution or dispersion containing the test chemical at the desired concentration. The plants are maintained in the greenhouse and are sub-irrigated as necessary. Final readings are made 2 weeks after treatment. Readings represent the percent kill or control of growth on the treated plants when compared to untreated plants, with 0 = no visible effects and 100 = all plants dead. Compounds found active are subsequently tested over a range of rates which are less than the initial rate. […]
(§3) Pots are filled to within 1 inch of the top with a medium-textured soil and seeds of any species considered appropriate (such as pigweed, field bindweed, velvet leaf, cotton, barnyard grass, foxtail, wild oat and crabgrass) are sown in their appropriate area. […] Final readings are made about 2 weeks after treatment, the exact time depending upon the rate of plant growth. Readings are based on the germination and the growth of treated plants compared with that of untreated plants. Readings of 0% = no visible effects and 100% = all plants dead. […]

Solubility = assay type: physicochemical
Staphylococcus aureus = test: Standard screening test, growth inhibition of microorganism; assay type: cell-based; details: 500 ppm
Wheat = test: Comparison with BROMINIL as post-emergent herbicide; assay type: in vivo; details: Triticum aestivum, post-emergence; post-emergent spray, 0.2% Tween 20, 300 gallons per acre; read-out: Concentration: minimum required for injury of wheat
Description: as §1

Morning Glory [1] = test: as above; assay type: in vivo; details: Ipomoea, post-emergence; post-emergent spray, 0.2% Tween 20, 300 gallons per acre; read-out: Concentration Required for adequate control
Description: as §1

Buckwheat = test: as above; assay type: in vivo; details: post-emergence; post-emergent spray, 0.2% Tween 20, 300 gallons per acre; read-out: Concentration Required for adequate control
Description: as §1

Wild Oats [2] = test: as above; assay type: in vivo; details: for minimal effective concentration: Avena fatua, post-emergence, post-emergent spray, 0.2% Tween 20, 300 gallons per acre, read-out: Concentration Required for adequate control
Description: as §1

Wild Mustard = test: as above; assay type: in vivo; details: Brassica, post-emergence; post-emergent spray, 0.2% Tween 20, 300 gallons per acre; read-out: Concentration Required for adequate control
Description: as §1

Bindweed [3] = test: as above; assay type: in vivo; details: post-emergence; post-emergent spray, 0.2% Tween 20, 300 gallons per acre; read-out: Concentration Required for adequate control
Description: as §1

two-spotted spider mites = test: Standard screening test, control of two-spotted spider mites; assay type: in vivo; details: 400 parts per million
crop plants = test: Post- and pre-emergent herbicide evaluation, crop plants overall; assay type: in vivo; details: at concentrations effective for weed control
Description: as §2, §3

Morning Glory [4] = test: Pre-emergent herbicide evaluation (Table II); assay type: in vivo; details: 4 Lbs/Acre, about 2 weeks after treatment
Description: (§4) Pots are filled to within 1 inch of the top with a medium-textured soil and seeds of any species considered appropriate (such as pigweed, field bindweed, velvet leaf, cotton, barnyard grass, foxtail, wild oat and crabgrass) are sown in their appropriate area. The seeds are then covered with a 1/2 inch layer of a sandy soil and test chemicals formulated at the desired concentration are drenched onto the soil surface in sufficient volume to wet the top 11/2 to 2 inches of soil. The pots are maintained in the greenhouse and are top-watered as necessary. Final readings are made about 2 weeks after treatment, the exact time depending upon the rate of plant growth. Readings are based on the germination and the growth of treated plants compared with that of untreated plants. Readings of 0% = no visible effects and 100% = all plants dead.
(§5) Compounds found active are subsequently tested over a range of rates which are less than the initial rate. The procedure is the same as described above with the exceptions that the seeds of appropriate species (such as soybean, corn, wheat, ragweed, Johnson grass, etc.) are covered with the same medium-textured soil used to fill the pot, and the chemicals are sprayed onto the soil surface at the desired rate in sufficient volume to cover and wet the soil surface. The pots are maintained, top-watered, and graded as described above.

White Winter Wheat [5] = test: Pre-emergent herbicide evaluation (Table II); assay type: in vivo; details: 4 Lbs/Acre, about 2 weeks after treatment
Description: as §4, §5

Soybean = test: Pre-emergent herbicide evaluation (Table II); assay type: in vivo; details: 4 Lbs/Acre, about 2 weeks after treatment
Description: as §4, §5

Cotton [6] = test: Pre-emergent herbicide evaluation (Table II); assay type: in vivo; details: about 2 weeks after treatment
Description: as §4, §5

Velvet Leaf [7] = test: Pre-emergent herbicide evaluation (Table II); assay type: in vivo; details: 10 Lbs/Acre, about 2 weeks after treatment
Description: as §4, §5

Cultured Rice [8] = test: Pre-emergent herbicide evaluation (Table II); assay type: in vivo; details: about 2 weeks after treatment
Description: as §4, §5

Yellow Foxtail [9] = test: Pre-emergent herbicide evaluation (Table II); assay type: in vivo; details: 10 Lbs/Acre, about 2 weeks after treatment
Description: as §4, §5

Sorghum/Milo [10] = test: Pre-emergent herbicide evaluation (Table II); assay type: in vivo; details: about 2 weeks after treatment
Description: as §4, §5

German Millet [11] = test: Pre-emergent herbicide evaluation (Table II); assay type: in vivo; details: 2 Lbs/Acre, about 2 weeks after treatment
Description: as §4, §5

Wild Oats [12] = test: Pre-emergent herbicide evaluation (Table II); assay type: in vivo; details: about 2 weeks after treatment
Description: as §4, §5

Barnyard Grass [13] = test: Pre-emergent herbicide evaluation (Table II); assay type: in vivo; details: 10 Lbs/Acre, about 2 weeks after treatment
Description: as §4, §5

Johnson Grass = test: Pre-emergent herbicide evaluation (Table II); assay type: in vivo; details: 4 Lbs/Acre, about 2 weeks after treatment
Description: as §4, §5

Bindweed [14] = test: Pre-emergent herbicide evaluation (Table II); assay type: in vivo; details: 10 Lbs/Acre, about 2 weeks after treatment
Description: as §4, §5

Corn [15] = test: Pre-emergent herbicide evaluation (Table II); assay type: in vivo; details: 4 Lbs/Acre, about 2 weeks after treatment
Description: as §4, §5

Crabgrass [16] = test: Pre-emergent herbicide evaluation (Table II); assay type: in vivo; details: 10 Lbs/Acre, about 2 weeks after treatment
Description: as §4, §5

Rape [17] = test: Pre-emergent herbicide evaluation (Table II); assay type: in vivo; details: 4 Lbs/Acre, about 2 weeks after treatment
Description: as §4, §5

Pigweeds [18] = test: Pre-emergent herbicide evaluation (Table II); assay type: in vivo; details: 2 Lbs/Acre, about 2 weeks after treatment
Description: as §4, §5

Beans [19] = test: Pre-emergent herbicide evaluation (Table II); assay type: in vivo; details: 10 Lbs/Acre, about 2 weeks after treatment
Description: as §4, §5

Morning Glory [20] = test: Post-emergent herbicide evaluation (Table I); assay type: in vivo; details: 2000 ppm, 2 weeks after treatment
Description: (§6) Pots are filled with a sandy soil, and plants of any species considered appropriate (such as pigweed, field bindweed, velvet leaf, cotton, barnyard grass, foxtail, wild oat, and crabgrass) are grown to an average height of 2 to 4 inches. Plants are then sprayed to run-off with an aqueous solution or dispersion containing the test chemical at the desired concentration. The plants are maintained in the greenhouse and are sub-irrigated as necessary. Final readings are made 2 weeks after treatment. Readings represent the percent kill or control of growth on the treated plants when compared to untreated plants, with 0 = no visible effects and 100 = all plants dead. Compounds found active are subsequently tested over a range of rates which are less than the initial rate. The procedure is the same as described above except that additional species (such as soybean, corn, wheat, ragweed, Johnson grass, etc.) are used. Additionally, test chemicals may be applied to the soil surface by drenching or as a solid to preclude contact with foliage. If foliage is sprayed, the pots are subsequently maintained by sub-irrigation; if chemical application is made to the soil, the pots are top-watered.

White Winter Wheat [21] = test: Post-emergent herbicide evaluation (Table I); assay type: in vivo; details: 2000 ppm, 2 weeks after treatment
Description: as §6

Cotton [22] = test: Post-emergent herbicide evaluation (Table I); assay type: in vivo; details: 4000 ppm, 2 weeks after treatment
Description: as §6

Velvet Leaf [23] = test: Post-emergent herbicide evaluation (Table I); assay type: in vivo; details: 2 weeks after treatment
Description: as §6

Cultured Rice [24] = test: Post-emergent herbicide evaluation (Table I); assay type: in vivo; details: 4000 ppm, 2 weeks after treatment
Description: as §6

Yellow Foxtail [25] = test: Post-emergent herbicide evaluation (Table I); assay type: in vivo; details: 4000 ppm, 2 weeks after treatment
Description: as §6

Sorghum/Milo [26] = test: Post-emergent herbicide evaluation (Table I); assay type: in vivo; details: 4000 ppm, 2 weeks after treatment
Description: as §6

German Millet [27] = test: Post-emergent herbicide evaluation (Table I); assay type: in vivo; details: 4000 ppm, 2 weeks after treatment
Description: as §6

Wild Oats [28] = test: Post-emergent herbicide evaluation (Table I); assay type: in vivo; details: 4000 ppm, 2 weeks after treatment
Description: as §6

Barnyard Grass [29] = test: Post-emergent herbicide evaluation (Table I); assay type: in vivo; details: 4000 ppm, 2 weeks after treatment
Description: as §6

Corn [30] = test: Post-emergent herbicide evaluation (Table I); assay type: in vivo; details: 4000 ppm, 2 weeks after treatment
Description: as §6

Crabgrass [31] = test: Post-emergent herbicide evaluation (Table I); assay type: in vivo; details: 4000 ppm, 2 weeks after treatment
Description: as §6

Rape [32] = test: Post-emergent herbicide evaluation (Table I); assay type: in vivo; details: 1000 ppm, 2 weeks after treatment
Description: as §6

Pigweeds [33] = test: Post-emergent herbicide evaluation (Table I); assay type: in vivo; details: 1000 ppm, 2 weeks after treatment
Description: as §6

Beans [34] = test: Post-emergent herbicide evaluation (Table I); assay type: in vivo; details: 4000 ppm, 2 weeks after treatment
Description: as §6

Soybeans = test: Post-emergent herbicide evaluation (Table I); assay type: in vivo; details: 4000 ppm, 2 weeks after treatment
Description: as §6

SMILES: N#Cc1cc(Br)c(O)c(Br)n1 [4,6-dibromo-5-hydroxy-2-pyridine nitrile]
- general activity relative to BROMINIL (plants): generally less active than BROMINIL
- herbicidal activity against weeds (weeds): moderately active herbicide against weeds
- solubility in the common organic solvents (Solubility; common organic solvents): soluble in the common organic solvents
- solubility in water (Solubility; water): essentially insoluble in water
- growth inhibition of Staphylococcus aureus (Staphylococcus aureus): inhibited growth
- minimal effective concentration (Wheat): 2000 µg/mL
- minimal effective concentration (Morning Glory [1]): 1000 µg/mL
- minimal effective concentration (Buckwheat): 250 µg/mL
- minimal effective concentration (Wild Oats [2]): 500 µg/mL
- times more active than BROMINIL against wild oats (Wild Oats [2]; post-emergent, relative to BROMINIL): 8 times
- minimal effective concentration (Wild Mustard): 62 µg/mL
- minimal effective concentration (Bindweed [3]): 4000 µg/mL
- control of two-spotted spider mites (two-spotted spider mites): 100%
- activity against most crop plants (crop plants): low or nil activity against most crop plants
- % Control (Morning Glory [4]): 15%
- % Control (White Winter Wheat [5]): 0%
- % Control (Soybean): 0%
- % Control (Cotton [6]; 4 Lbs/Acre): 0%
- % Control (Cotton [6]; 10 Lbs/Acre): 100%
- % Control (Velvet Leaf [7]): 40%
- % Control (Cultured Rice [8]; 2 Lbs/Acre): 0%
- % Control (Cultured Rice [8]; 4 Lbs/Acre): 15%
- % Control (Yellow Foxtail [9]): 80%
- % Control (Sorghum/Milo [10]; 2 Lbs/Acre): 0%
- % Control (Sorghum/Milo [10]; 4 Lbs/Acre): 15%
- % Control (German Millet [11]): 40%
- % Control (Wild Oats [12]; 4 Lbs/Acre): 70%
- % Control (Wild Oats [12]; 10 Lbs/Acre): 85%
- % Control (Barnyard Grass [13]): 40%
- % Control (Johnson Grass): 0%
- % Control (Bindweed [14]): 25%
- % Control (Corn [15]): 20%
- % Control (Crabgrass [16]): 50%
- % Control (Rape [17]): 25%
- % Control (Pigweeds [18]): 100%
- % Control (Beans [19]): 60%
- Percent Control (Morning Glory [20]): 100%
- Percent Control (White Winter Wheat [21]): 0%
- Percent Control (Cotton [22]): 100%
- Percent Control (Velvet Leaf [23]; 1000 ppm): 85%
- Percent Control (Velvet Leaf [23]; 2000 ppm): 100%
- Percent Control (Cultured Rice [24]): 0%
- Percent Control (Yellow Foxtail [25]): 70%
- Percent Control (Sorghum/Milo [26]): 0%
- Percent Control (German Millet [27]): 85%
- Percent Control (Wild Oats [28]): 65%
- Percent Control (Barnyard Grass [29]): 75%
- Percent Control (Corn [30]): 0%
- Percent Control (Crabgrass [31]): 100%
- Percent Control (Rape [32]): 100%
- Percent Control (Pigweeds [33]): 100%
- Percent Control (Beans [34]): 70%
- Percent Control (Soybeans): 0%

SMILES: N#Cc1cc(Br)c(O)c(Br)c1 [BROMINIL, 3,5-dibromo-4-hydroxy benzonitrile]
- minimal effective concentration (Wheat): 4000 µg/mL
- minimal effective concentration (Morning Glory [1]): 16 µg/mL
- minimal effective concentration (Buckwheat): 16 µg/mL
- minimal effective concentration (Wild Oats [2]): > 4000 µg/mL
- minimal effective concentration (Wild Mustard): 16 µg/mL
- minimal effective concentration (Bindweed [3]): 500 µg/mL
